PubChem BioAssay (NCI)
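Exposure lasted 48 hours, with cells grown in 96-well plates and compounds tested at five concentrations. The concentration for full growth arrest is given as TGI.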

Experiments:
Experiment in all cases: DTP human tumour cell line panel, 48 h
786-0 renal = system: 786-0 renal
A549 NSCLC = system: A549 NSCLC
ACHN renal = system: ACHN renal
CAKI-1 renal = system: CAKI-1 renal
CCRF-CEM leukemia = system: CCRF-CEM leukemia
COLO 205 colon = system: COLO 205 colon
DU-145 prostate = system: DU-145 prostate
EKVX NSCLC = system: EKVX NSCLC
HCC-2998 colon = system: HCC-2998 colon
HCT-116 colon = system: HCT-116 colon
HCT-15 colon = system: HCT-15 colon
HL-60(TB) leukemia = system: HL-60(TB) leukemia
HOP-62 NSCLC = system: HOP-62 NSCLC
HS 578T breast = system: HS 578T breast
HT29 colon = system: HT29 colon
IGROV1 ovarian = system: IGROV1 ovarian
K-562 leukemia = system: K-562 leukemia
KM12 colon = system: KM12 colon
M14 melanoma = system: M14 melanoma
MCF7 breast = system: MCF7 breast
MDA-MB-231 breast = system: MDA-MB-231 breast
MDA-MB-435 = system: MDA-MB-435
MDA-N = system: MDA-N
MOLT-4 leukemia = system: MOLT-4 leukemia
NCI-H226 lung = system: NCI-H226 lung
NCI-H460 lung = system: NCI-H460 lung
NCI/ADR-RES ovarian = system: NCI/ADR-RES ovarian
OVCAR-4 ovarian = system: OVCAR-4 ovarian
OVCAR-8 ovarian = system: OVCAR-8 ovarian
PC-3 prostate = system: PC-3 prostate
RPMI-8226 leukemia = system: RPMI-8226 leukemia
RXF 393 renal = system: RXF 393 renal
SF-268 CNS = system: SF-268 CNS
SF-295 CNS = system: SF-295 CNS
SF-539 CNS = system: SF-539 CNS
SK-MEL-2 melanoma = system: SK-MEL-2 melanoma
SK-MEL-28 melanoma = system: SK-MEL-28 melanoma
SK-MEL-5 melanoma = system: SK-MEL-5 melanoma
SK-OV-3 ovarian = system: SK-OV-3 ovarian
SN12C renal = system: SN12C renal
SNB-19 CNS = system: SNB-19 CNS
SNB-75 CNS = system: SNB-75 CNS
SR leukemia = system: SR leukemia
SW-620 colon = system: SW-620 colon
T-47D breast = system: T-47D breast
TK-10 renal = system: TK-10 renal
U251 CNS = system: U251 CNS
UACC-257 melanoma = system: UACC-257 melanoma
UACC-62 melanoma = system: UACC-62 melanoma
UO-31 renal = system: UO-31 renal
BT-549 breast = system: BT-549 breast
HOP-92 NSCLC = system: HOP-92 NSCLC
LOX IMVI melanoma = system: LOX IMVI melanoma
MALME-3M melanoma = system: MALME-3M melanoma
NCI-H23 lung = system: NCI-H23 lung
NCI-H522 lung = system: NCI-H522 lung
OVCAR-3 ovarian = system: OVCAR-3 ovarian
OVCAR-5 ovarian = system: OVCAR-5 ovarian

COc1ccc(C(=O)/C=C/c2ccc(OCCCOc3ccc(/C=C/C(=O)c4ccc(OC)c(OC)c4)cc3)cc2)cc1OC
TGI (786-0 renal): > 100 µM
TGI (A549 NSCLC): > 100 µM
TGI (ACHN renal): > 100 µM
TGI (CAKI-1 renal): > 100 µM
TGI (CCRF-CEM leukemia): > 100 µM
TGI (COLO 205 colon): > 100 µM
TGI (DU-145 prostate): > 100 µM
TGI (EKVX NSCLC): > 100 µM
TGI (HCC-2998 colon): > 100 µM
TGI (HCT-116 colon): > 100 µM
TGI (HCT-15 colon): > 100 µM
TGI (HL-60(TB) leukemia): > 100 µM
TGI (HOP-62 NSCLC): > 100 µM
TGI (HS 578T breast): > 100 µM
TGI (HT29 colon): > 100 µM
TGI (IGROV1 ovarian): > 100 µM
TGI (K-562 leukemia): > 100 µM
TGI (KM12 colon): > 100 µM
TGI (M14 melanoma): > 100 µM
TGI (MCF7 breast): > 100 µM
TGI (MDA-MB-231 breast): > 100 µM
TGI (MDA-MB-435): > 100 µM
TGI (MDA-N): > 100 µM
TGI (MOLT-4 leukemia): > 100 µM
TGI (NCI-H226 lung): > 100 µM
TGI (NCI-H460 lung): > 100 µM
TGI (NCI/ADR-RES ovarian): > 100 µM
TGI (OVCAR-4 ovarian): > 100 µM
TGI (OVCAR-8 ovarian): > 100 µM
TGI (PC-3 prostate): > 100 µM
TGI (RPMI-8226 leukemia): > 100 µM
TGI (RXF 393 renal): > 100 µM
TGI (SF-268 CNS): > 100 µM
TGI (SF-295 CNS): > 100 µM
TGI (SF-539 CNS): > 100 µM
TGI (SK-MEL-2 melanoma): > 100 µM
TGI (SK-MEL-28 melanoma): > 100 µM
TGI (SK-MEL-5 melanoma): > 100 µM
TGI (SK-OV-3 ovarian): > 100 µM
TGI (SN12C renal): > 100 µM
TGI (SNB-19 CNS): > 100 µM
TGI (SNB-75 CNS): > 100 µM
TGI (SR leukemia): > 100 µM
TGI (SW-620 colon): > 100 µM
TGI (T-47D breast): > 100 µM
TGI (TK-10 renal): > 100 µM
TGI (U251 CNS): > 100 µM
TGI (UACC-257 melanoma): > 100 µM
TGI (UACC-62 melanoma): > 100 µM
TGI (UO-31 renal): > 100 µM

Clc1ccc(Cc2nc3ccccc3nc2-c2cccc(Cl)c2)cc1
TGI (786-0 renal): 3.63 µM
TGI (A549 NSCLC): 32.8 µM
TGI (ACHN renal): 3.45 µM
TGI (BT-549 breast): 16.7 µM
TGI (CAKI-1 renal): 8.51 µM
TGI (CCRF-CEM leukemia): 0.174 µM
TGI (COLO 205 colon): 7.88 µM
TGI (DU-145 prostate): 40.6 µM
TGI (EKVX NSCLC): 31.9 µM
TGI (HCC-2998 colon): 3.65 µM
TGI (HCT-116 colon): 3.29 µM
TGI (HCT-15 colon): 3.46 µM
TGI (HL-60(TB) leukemia): 6.29 µM
TGI (HOP-62 NSCLC): 38.1 µM
TGI (HOP-92 NSCLC): 5.14 µM
TGI (HS 578T breast): 12.4 µM
TGI (HT29 colon): 6 µM
TGI (IGROV1 ovarian): 3.66 µM
TGI (K-562 leukemia): 5.79 µM
TGI (KM12 colon): 16.5 µM
TGI (LOX IMVI melanoma): 3.58 µM
TGI (M14 melanoma): 5.06 µM
TGI (MALME-3M melanoma): 8.24 µM
TGI (MCF7 breast): 13 µM
TGI (MDA-MB-231 breast): 10.4 µM
TGI (MDA-MB-435): 4.09 µM
TGI (MDA-N): 5.64 µM
TGI (MOLT-4 leukemia): 6.82 µM
TGI (NCI-H226 lung): 38.4 µM
TGI (NCI-H23 lung): 27 µM
TGI (NCI-H460 lung): 37.8 µM
TGI (NCI-H522 lung): 3.41 µM
TGI (NCI/ADR-RES ovarian): 8.96 µM
TGI (OVCAR-3 ovarian): 17.4 µM
TGI (OVCAR-4 ovarian): 3.24 µM
TGI (OVCAR-5 ovarian): 21.2 µM
TGI (OVCAR-8 ovarian): 14.2 µM
TGI (PC-3 prostate): 8.18 µM
TGI (RPMI-8226 leukemia): 2.14 µM
TGI (RXF 393 renal): 4.66 µM
TGI (SF-268 CNS): 44.4 µM
TGI (SF-295 CNS): 32.6 µM
TGI (SF-539 CNS): 4.92 µM
TGI (SK-MEL-2 melanoma): 8.11 µM
TGI (SK-MEL-5 melanoma): 18.1 µM
TGI (SK-OV-3 ovarian): 31.8 µM
TGI (SN12C renal): 8.63 µM
TGI (SNB-19 CNS): 3.85 µM
TGI (SW-620 colon): 3.71 µM
TGI (T-47D breast): > 100 µM
TGI (TK-10 renal): 25.9 µM
TGI (U251 CNS): 16.7 µM
TGI (UACC-257 melanoma): 39.3 µM
TGI (UACC-62 melanoma): 3.46 µM
TGI (UO-31 renal): 3.32 µM
